Results taken from US4315942A, “Intravenously administrable iron supplement” (New England Medical Center, Inc., priority 1979, dated 1982).

How the values were obtained:
[1] = oral, relatively large daily doses; cited from earlier work
serum transferrin = experiment: Serum Fe, TIBC and saturation of serum transferrin after IV injection of the complex in a dog (efficacy to increase bioavailable iron); format: in vivo; settings: for serum Fe / TIBC (Total Iron Binding Capacity): IV push; for serum Fe: before injection 235 (dog fed an iron rich diet); for TIBC (Total Iron Binding Capacity): before injection 360
Protocol: (§1) A 17 kg dog was premedicated and then anesthesized with IV sodium amytal. Through a femoral vein cutdown, the following studies were drawn before and after the addition of the iron complex solution: Hgb, Hct, serum Fe and TIBC (Total Iron Binding Capacity). In addition, serum Fe and TIBC were drawn after the addition of one half of the solution.
(§2) 40 ml of fresh stock solution (containing 6 mg of iron) were given by IV push through the femoral vein. The dog's ECG was monitored throughout the procedure. In approximately 10 minutes, the second set of studies were drawn and a second 40 ml were pushed. The final set of blood studies were drawn in approximately 10 minutes.

[2] = Hgb and Hct after IV injection of the complex in a dog; format: in vivo; settings: after injection of 12 mg Fe, IV push, about 10 minutes
Protocol: as §1, §2

[3] = after injection of 6 mg Fe, about 10 minutes
[4] = after injection of 12 mg Fe, about 10 minutes after second 40 ml

## ferrous sulfate
[1]
  side effects: nausea, vomiting, constipation

## CC(=O)N[O-].CC(=O)N[O-].CC(=O)N[O-].[Fe+3] [ferric acetohydroxamic acid complex, iron (III) complex of acetohydroxamic acid]
Serum transferrin; addition of 6 mg of iron, IV, serum Fe equal to the TIBC
  saturation of serum transferrin: saturated the serum transferrin
Serum transferrin; after a further 6 mg of iron, IV
  serum iron relative to TIBC: greater than the TIBC
Serum transferrin; [3]
  serum Fe: 360 μg/100 ml
  TIBC (Total Iron Binding Capacity): 360 μg/100 ml
Serum transferrin; [4]
  serum Fe: 470 μg/100 ml
  TIBC (Total Iron Binding Capacity): 330 μg/100 ml
[2]; before injection 6.7
  Hgb: 6.5 g%
[2]; before injection 20.5
  Hct: 20.0%
